Results published in the NIST ThermoML archive (doi:10.1016/j.jct.2008.02.020).

Settings: Liquid, Buoyancy - hydrostatic balance with magnetic suspension - one sinker

Cc1ccc(Cl)cc1Cl [1,3-dichloro-4-methylbenzene]
Settings | mass density [kg/m3]
263.15 K, 97.86 kPa | 1280.75
263.15 K, 1123.9 kPa | 1281.41
263.15 K, 2150.1 kPa | 1282.08
263.15 K, 3971.8 kPa | 1283.26
263.15 K, 6167.5 kPa | 1284.65
263.15 K, 7898.5 kPa | 1285.75
263.15 K, 9974.7 kPa | 1287.06
273.15 K, 101.87 kPa | 1270.26
273.15 K, 1168.7 kPa | 1270.98
273.15 K, 2038.5 kPa | 1271.57
273.15 K, 4184.1 kPa | 1273.02
273.15 K, 5901.9 kPa | 1274.17
273.15 K, 7917 kPa | 1275.5
273.15 K, 10080 kPa | 1276.92
273.15 K, 11859 kPa | 1278.07
273.15 K, 14024 kPa | 1279.46
273.15 K, 16108 kPa | 1280.79
273.15 K, 17842 kPa | 1281.88
273.15 K, 20076 kPa | 1283.28
273.15 K, 22132 kPa | 1284.55
273.15 K, 24150 kPa | 1285.79
273.15 K, 26076 kPa | 1286.95
273.15 K, 27913 kPa | 1288.06
273.15 K, 29994 kPa | 1289.3
293.15 K, 97.54 kPa | 1249.31
293.16 K, 1126.7 kPa | 1250.08
293.17 K, 1886.8 kPa | 1250.65
293.18 K, 4191.9 kPa | 1252.36
293.19 K, 6062.4 kPa | 1253.73
293.2 K, 7970.1 kPa | 1255.11
293.21 K, 10165 kPa | 1256.68
293.22 K, 12144 kPa | 1258.09
293.23 K, 14101 kPa | 1259.46
293.24 K, 16101 kPa | 1260.85
293.25 K, 18110 kPa | 1262.23
293.26 K, 20077 kPa | 1263.55
293.27 K, 22136 kPa | 1264.94
293.28 K, 24103 kPa | 1266.25
293.29 K, 25962 kPa | 1267.48
293.3 K, 27896 kPa | 1268.74
293.31 K, 29829 kPa | 1270
313.15 K, 107.85 kPa | 1228.39
313.15 K, 1095.7 kPa | 1229.21
313.15 K, 2082.7 kPa | 1230.02
313.15 K, 4107.2 kPa | 1231.67
313.15 K, 5854.6 kPa | 1233.08
313.15 K, 8123.1 kPa | 1234.89
313.15 K, 10162 kPa | 1236.49
313.15 K, 12124 kPa | 1238.01
313.15 K, 13892 kPa | 1239.36
313.15 K, 16106 kPa | 1241.04
313.15 K, 18086 kPa | 1242.52
313.15 K, 20144 kPa | 1244.04
313.15 K, 22020 kPa | 1245.42
313.15 K, 24014 kPa | 1246.86
313.15 K, 25938 kPa | 1248.23
313.15 K, 27776 kPa | 1249.54
313.15 K, 29828 kPa | 1250.98
333.15 K, 101.71 kPa | 1207.38
333.15 K, 1081.7 kPa | 1208.28
333.15 K, 1877.8 kPa | 1209
333.15 K, 3933.1 kPa | 1210.85
333.15 K, 5993.1 kPa | 1212.68
333.15 K, 8164.3 kPa | 1214.58
333.15 K, 10140 kPa | 1216.29
333.15 K, 12129 kPa | 1217.98
333.15 K, 14157 kPa | 1219.68
333.15 K, 16129 kPa | 1221.31
333.15 K, 18148 kPa | 1222.96
333.15 K, 20046 kPa | 1224.49
333.15 K, 22094 kPa | 1226.12
333.15 K, 24026 kPa | 1227.64
333.15 K, 25826 kPa | 1229.04
333.15 K, 27856 kPa | 1230.61
333.15 K, 29702 kPa | 1232.01
353.15 K, 101.05 kPa | 1186.2
353.15 K, 1224 kPa | 1187.34
353.15 K, 2054.2 kPa | 1188.18
353.15 K, 4178 kPa | 1190.3
353.15 K, 6020.6 kPa | 1192.11
353.15 K, 8131.5 kPa | 1194.14
353.15 K, 10113 kPa | 1196.02
353.15 K, 12081 kPa | 1197.87
353.15 K, 14118 kPa | 1199.74
353.15 K, 16085 kPa | 1201.53
353.15 K, 18058 kPa | 1203.29
353.15 K, 19980 kPa | 1204.98
353.15 K, 22046 kPa | 1206.78
353.15 K, 24056 kPa | 1208.5
353.15 K, 26025 kPa | 1210.17
353.15 K, 27872 kPa | 1211.71
353.15 K, 29804 kPa | 1213.32
373.15 K, 99.43 kPa | 1164.78
373.15 K, 1084.4 kPa | 1165.89
373.15 K, 1956.5 kPa | 1166.87
373.15 K, 4135.4 kPa | 1169.29
373.15 K, 5954.6 kPa | 1171.27
373.15 K, 7981.3 kPa | 1173.43
373.15 K, 10128 kPa | 1175.67
373.15 K, 11936 kPa | 1177.54
373.15 K, 14002 kPa | 1179.62
373.15 K, 15987 kPa | 1181.6
373.15 K, 18116 kPa | 1183.68
373.15 K, 19990 kPa | 1185.5
373.15 K, 22002 kPa | 1187.4
373.15 K, 23973 kPa | 1189.24
373.15 K, 26011 kPa | 1191.11
373.15 K, 28050 kPa | 1192.96
373.15 K, 29922 kPa | 1194.64
393.15 K, 100.49 kPa | 1143.03
393.15 K, 1179.5 kPa | 1144.4
393.15 K, 1991.5 kPa | 1145.42
393.15 K, 3926.6 kPa | 1147.8
393.15 K, 5963.8 kPa | 1150.27
393.15 K, 7963.7 kPa | 1152.64
393.15 K, 10152 kPa | 1155.17
393.15 K, 12148 kPa | 1157.43
393.15 K, 14137 kPa | 1159.65
393.15 K, 16116 kPa | 1161.81
393.15 K, 17917 kPa | 1163.75
393.15 K, 20141 kPa | 1166.09
393.15 K, 22096 kPa | 1168.12
393.15 K, 24174 kPa | 1170.23
393.15 K, 26160 kPa | 1172.22
393.15 K, 27968 kPa | 1174
393.15 K, 29927 kPa | 1175.92
413.15 K, 100.59 kPa | 1120.92
413.15 K, 1151.6 kPa | 1122.41
413.15 K, 2145.3 kPa | 1123.81
413.15 K, 3981.3 kPa | 1126.35
413.15 K, 6146.6 kPa | 1129.27
413.15 K, 8164.1 kPa | 1131.92
413.15 K, 10060 kPa | 1134.35
413.15 K, 11927 kPa | 1136.7
413.15 K, 14145 kPa | 1139.43
413.15 K, 16150 kPa | 1141.84
413.15 K, 18124 kPa | 1144.17
413.15 K, 20124 kPa | 1146.49
413.15 K, 22139 kPa | 1148.77
413.15 K, 24073 kPa | 1150.92
413.15 K, 26091 kPa | 1153.13
413.15 K, 29979 kPa | 1157.28
433.15 K, 95.11 kPa | 1098.16
433.15 K, 1136.7 kPa | 1099.85
433.15 K, 2147.7 kPa | 1101.45
433.15 K, 3917.8 kPa | 1104.21
433.15 K, 6150.5 kPa | 1107.59
433.15 K, 8148.5 kPa | 1110.53
433.15 K, 10046 kPa | 1113.26
433.15 K, 12142 kPa | 1116.17
433.15 K, 14151 kPa | 1118.91
433.15 K, 16187 kPa | 1121.62
433.15 K, 18165 kPa | 1124.19
433.15 K, 20168 kPa | 1126.73
433.15 K, 22138 kPa | 1129.18
433.15 K, 24093 kPa | 1131.56
433.15 K, 26057 kPa | 1133.91
433.15 K, 28003 kPa | 1136.2
433.15 K, 29939 kPa | 1138.43
453.15 K, 1198.5 kPa | 1076.81
453.15 K, 2151.7 kPa | 1078.53
453.15 K, 4164.4 kPa | 1082.08
453.15 K, 6169.6 kPa | 1085.47
453.15 K, 8024.4 kPa | 1088.53
453.15 K, 10086 kPa | 1091.85
453.15 K, 12119 kPa | 1094.99
453.15 K, 14144 kPa | 1098.05
453.15 K, 16087 kPa | 1100.89
453.15 K, 19984 kPa | 1106.47
453.15 K, 22044 kPa | 1109.28
453.15 K, 24087 kPa | 1112.01
453.15 K, 26125 kPa | 1114.68
453.15 K, 28000 kPa | 1117.08
453.15 K, 29897 kPa | 1119.49
473.15 K, 1132.5 kPa | 1052.66
473.15 K, 2054.3 kPa | 1054.57
473.15 K, 4181.9 kPa | 1058.81
473.15 K, 5970.9 kPa | 1062.27
473.15 K, 8153.5 kPa | 1066.34
473.15 K, 10138 kPa | 1069.91
473.15 K, 12109 kPa | 1073.33
473.15 K, 14125 kPa | 1073.33
473.15 K, 16133 kPa | 1080.01
473.15 K, 18132 kPa | 1083.19
473.15 K, 20147 kPa | 1086.3
473.15 K, 22083 kPa | 1089.22
473.15 K, 24078 kPa | 1092.15
473.15 K, 26043 kPa | 1094.96
473.15 K, 27886 kPa | 1097.55
473.15 K, 29893 kPa | 1100.31
